# Laboratory results reported in patent US6444644B1, “Anticoagulant peptide fragments derived from apolipoprotein B-100” (University College London, priority 1996, dated 2002).
# No end group written: not given here.
# Legend:
# thromboplastin [1] = biological target: T1, thromboplastin (Homo sapiens, UniProt P13726); assay: Inhibition of thromboplastin in the presence of plasma; type: biochemical
# T1 construct: purchased Gamidor Ltd. (Oxfordshire, U.K.)
# Description: […] The samples were then assayed by addition of 100 μl of […] CaCl2 solution and measurement on the coagulometer. The percentage inhibition in each case calculated against a similarly treated sample, containing thromboplastin only.
# [2] = biological target: T2, thromboplastin, reconstituted in phosphatidylcholine (Homo sapiens, UniProt P13726); assay: Inhibition of delipidated thromboplastin reconstituted in phosphatidylcholine; type: biochemical; conditions: 500 nM sample, 37° C., 30 min
# T2 construct: purchased Gamidor Ltd. (Oxfordshire, U.K.)
# T2 sequence (P13726 33-295): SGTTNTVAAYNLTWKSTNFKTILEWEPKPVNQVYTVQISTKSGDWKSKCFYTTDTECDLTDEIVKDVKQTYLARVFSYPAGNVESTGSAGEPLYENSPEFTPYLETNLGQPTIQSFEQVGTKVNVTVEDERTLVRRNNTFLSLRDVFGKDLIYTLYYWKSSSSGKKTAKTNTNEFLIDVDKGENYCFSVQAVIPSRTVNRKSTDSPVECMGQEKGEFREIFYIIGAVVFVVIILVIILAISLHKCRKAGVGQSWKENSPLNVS
# Description: In other experiments, recombinant thromboplastin (1 mg/ml) was delipidated with chloroform/methanol as described previously, to remove phosphatidylserine and other lipids and reconstituted with phosphatidylcholine (1 mg/ml) to differentiate between the effects of the prepared samples on the protein moiety of thromboplastin and any effects on the thromboplastin-associated phosphatidylserine. […] The percentage inhibition was calculated against the control sample.
# Recombinant thromboplastin was delipidated to remove phosphatidylserine and other lipids and reconstituted at 1 mg/ml with phosphatidylcholine (1 mg/ml). […] The % Inhibition was calculated against the control. The data were obtained from 3 separate experiments.
# thrombin = thrombin (Homo sapiens, UniProt P00734); assay: Influence on thrombin activity (amidolytic and clotting); type: biochemical; conditions: 500 nM peptide, thrombin 100 nM
# Description: Samples (1 ml) of either KRAD-14 peptide (500 nM) or each of the control peptides (500 nM) were incubated with thrombin (100 nM) at 37° C. and the thrombin activity measured at the beginning and at intervals up to 60 min as follows. The enzymatic activity of thrombin was measured by the addition of 100 μl aliquots to 0.45 ml of thrombin substrate (N-benzoyl-phe-val-arg-p-nitroanilide) (0.26 mM) which was then incubated at 37° C. for exactly 10 min, before the addition of 0.45 ml of 20% (w/v) acetic acid. The absorption was measured at 405 nm against a thrombin (100 nM) control assayed similarly. The procoagulant activity of thrombin was measured by the addition of 100 μl of the sample to control plasma (100 μl) and 25 mM CaCl2 solution and measuring the clotting time. A thrombin 100 nM) control was included in the assay against which comparisons were made.
# thromboplastin [3] = biological target: T1, thromboplastin; assay: Time-course inhibition of thromboplastin procoagulant activity (one-stage prothrombin time and two-stage amidolytic assay); type: biochemical; conditions: 500 nM, thromboplastin 100 nM (10 U/ml), 37° C.
# Description: The one stage prothrombin time assay was carried out by the addition of 100 μl of the sample to 100 μl of 25 mM CaCl2 solution and incubation prior to addition of 100 μl of control plasma. The clotting time was measured on the coagulometer. The two-stage amidolytic assay was carried according to published procedures. In all cases the thromboplastin activity was calculated from a standard curve prepared previously and the percentage inhibition was calculated as 100×[…].
# The apolipoprotein B-100 control peptide (fragment 3358-3372) containing the sequence TRLTRKRGLKLATAL was reconstituted in distilled water to 1 mM. The freeze-dried samples were reconstituted in distilled water to a concentration of 1 mM. Two 200 μl samples of thromboplastin (10 U/ml) were incubated with 500 nM KRAD-14 or apolipoprotein B-100 control peptide at 37° C. for 45 min. Another set of 200 μl samples of thromboplastin (10 U/ml) were incubated with either 500 nM KRAD-98 or the chloramphenicol acetyltransferase control protein. […] Following the incubation the thromboplastin activity in all the samples was measured by means of the one-stage prothrombin time assay and the two-stage amidolytic assay and the percentage inhibition calculated against the control containing distilled water.
# The above experiments were repeated using 1 ml samples containing recombinant thromboplastin (10 U/ml) mixed with either 500 nM KRAD-14, 500 nM KRAD-98 or 500 nM apolipoprotein B-100, reconstituted as described before. The concentrations used are equivalent to that of apolipoprotein B-100 in normal plasma. 100 μl of the each sample was removed immediately and assayed for thromboplastin activity, by means of the one-stage prothrombin time assay. The rest of the samples were incubated at 37° C. and further 100 μl samples were removed at intervals up to 120 min and measured as before. The percentage inhibition was calculated against a control sample of thromboplastin.
# Three 1 ml samples containing recombinant thromboplastin (10 U/ml) were mixed with 500 nM KRAD-14 (solid square), 500 nM KRAD-98 (open square) or 500 nM apolipoprotein […] (triangle), reconstituted as described before. The concentrations used are equivalent to that of apolipoprotein B-100 in normal plasma. 100 μl of the each sample was removed immediately and assayed for thromboplastin activity, by means of the one-stage prothrombin time assay. The rest of the samples were incubated at 37° C. and further 100 μl samples were removed at intervals up to 120 min and measured as before. The thromboplastin activity was calculated from a standard curve prepared previously and the percentage inhibition was calculated as 100×[…]. The curves are typical of data from four sets of experiments.
# thromboplastin [4] = biological target: T1, thromboplastin; assay: Stability of the inhibitory effect of KRAD-14 following reconstitution; type: physicochemical
# Description: However, KRAD-14 was effective at concentration as low as 50 nM. Moreover, the inhibition was unstable and completely disappeared after approximately 8 min following reconstitution. This deterioration was partially stabilised by adjusting the pH and addition of 5 nM bovine serum albumin as a stabiliser. However, the inhibitory effect deteriorated rapidly, completely disappearing after 15 min, following reconstitution.
# T1 sequence (P13726 33-295): as above
sequence,measurement,setting,value
KAQSKKNKHRHSTT [KRAD-14],influence of plasma on the ability to inhibit thromboplastin activity (in words),"thromboplastin [1]; plasma included during the incubation prior to assaying, peptide 500 nM",did not significantly affect
same,inhibition of thromboplastin activity in the presence of plasma,"thromboplastin [1]; plasma present, 37° C., 2 min incubation",74%
same,inhibition at 0.5 µM,[2]; against distilled water control,> 99%
same,% Inhibition,"[2]; against distilled water control, listed as Recombinant KRAD-14 peptide",99%
same,Procoagulant Activity,[2]; distilled water control 4.70 U/ml,(0.05 U/ml)
same,effect on the amidolytic proteolytic activity of thrombin,thrombin,did not affect
same,effect on the clotting ability of thrombin,thrombin,did not affect
same,inhibition at 0.5 µM,thromboplastin [3]; 2 min incubation,90%
same,inhibition at 0.5 µM,thromboplastin [3]; 4 min incubation (maximum),98%
same,time after reconstitution at which the inhibition completely disappeared,thromboplastin [4]; no stabiliser,approximately 8 min
same,time after reconstitution at which the inhibitory effect completely disappeared,thromboplastin [4]; pH adjusted and 5 nM bovine serum albumin added as a stabiliser,15 min
